According to patent publication US20130079345A1, “[…] ACTIVE DISUBSTITUTED TRIAZINE DERIVATIVES” (BAYER INTELLECTUAL PROPERTY GMBH, priority 2010, published 2013):

What was measured:
[1] = target: T1, CDK9/Cyclin T1 (Homo sapiens, UniProt P50750); experiment: LanthaScreen Eu Kinase Binding Assay, CDK9/Cyclin T1; details: tracer 236, read-out: Affinity (Kd) CDK9/Cyclin T1
T1 construct: purchased Invitrogen
Description: (§1) This protocol describes how the LanthaScreen Eu Kinase Binding Assay was performed to determine dissociation constants (Kd) of compounds of general formula (I) and CDK/Cyclin complexes. The principle behind this assay is based upon the binding and displacement of an Alexa Fluor 647-labeled tracer, which binds to the active site of kinases. Binding of the tracer to the kinase is detected using a Eu-labeled antibody. Simultaneous binding of both the tracer and antibody to the kinase gives rise to a FRET-signal. Binding of an inhibitor to the kinase competes for binding with the tracer, resulting in a loss of FRET.
(§2) The compounds of general formula (I) summarized in Table 1 were diluted from a 10 mM DMSO stock solution 1:10 in a total volume of 15 μL DMSO. This compound predilution was then serial diluted 1:3 over 8 steps in DMSO and briefly spun down. Each compound solution was now diluted 1:33.33 in kinase buffer (HEPES: 20 mM, pH: 8.0; MgCl2: 10 mM; DTT: 1 mM; Brij-35: 0.01%), mixed thoroughly and spun down. For every sample, 5 μL of the diluted compound were mixed with 5 μL tracer working solution (e.g. 60 nM tracer 236 in kinase buffer for CDK2/Cyclin A) and 5 μL CDK/Cyclin/Anti-GST-AB-working solution (e.g. 15 nM CDK2/Cyclin A, 1:250 dilution of Anti-GST-AB in kinase buffer) in a well of a small volume 384 well plate (Corning Incorporated, Corning, N.Y., USA; order no. 3673). […] For positive controls, in each well 5 μL of DMSO working solution (3% DMSO diluted in kinase buffer) was mixed with 5 μL CDK/Cyclin/Anti-GST-AB-working solution: (e.g. 15 nM CDK2/Cyclin A, 1:250 dilution of Anti-GST-AB in kinase buffer) and 5 μL Tracer working solution (e.g. 60 nM Tracer 236 in kinase buffer for CDK2/Cyclin A). Positive and negative controls were calculated from at least 8 different sample wells. The 384 well plates were mixed in a Teleshaker plate mixer (Beckman Coulter, Brea, Calif., USA) at 2000 rpm for 40 sec, and incubated for 1 h at room temperature before reading. The FRET signal was measured at 340 nm excitation, 665 nm and 615 nm emission (for the kinase tracer and LanthaScreen Eu-AB, respectively) with an Envision spectrophotometer (Perkin Elmer, Waltham, Mass., USA) with 50 μs delay and 300 μs integration time. Kd values were determined from the sigmoidal dose response curves with the software Quattro Workflow (Quattro GmbH, Munich, Germany).

[2] = target: T2, CDK2/CyclinA (Homo sapiens, UniProt P24941); experiment: LanthaScreen Eu Kinase Binding Assay, CDK2; details: tracer 236, read-out: Affinity (Kd) CDK2
T2 construct: purchased Proqinase
Description: as §1, §2

[3] = target: T3, CDK9/Cyclin K (Homo sapiens, UniProt P50750); experiment: LanthaScreen Eu Kinase Binding Assay, CDK9/Cyclin K; details: tracer 236, read-out: Affinity (Kd) CDK9/Cyclin K
T3 construct: purchased Invitrogen
Description: as §1, §2

[4] = target: T4, CDK7/CyclinH/Mat1 (Homo sapiens, UniProt P50613); experiment: LanthaScreen Eu Kinase Binding Assay, CDK7; details: tracer 236, read-out: Affinity (Kd) CDK7
T4 construct: purchased Carna Biosciences
Description: as §1, §2

T4 sequence (P50613 whole entry): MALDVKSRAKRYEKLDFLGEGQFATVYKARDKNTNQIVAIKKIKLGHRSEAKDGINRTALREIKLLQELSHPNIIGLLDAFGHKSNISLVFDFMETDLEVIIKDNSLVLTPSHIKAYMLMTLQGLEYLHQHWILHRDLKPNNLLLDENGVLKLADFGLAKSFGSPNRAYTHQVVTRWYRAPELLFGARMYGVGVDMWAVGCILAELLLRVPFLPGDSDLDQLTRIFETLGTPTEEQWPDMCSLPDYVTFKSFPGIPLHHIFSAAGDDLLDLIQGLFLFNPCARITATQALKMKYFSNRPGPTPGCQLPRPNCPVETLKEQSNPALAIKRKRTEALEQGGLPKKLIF
T4 sequence (P51946 whole entry partner): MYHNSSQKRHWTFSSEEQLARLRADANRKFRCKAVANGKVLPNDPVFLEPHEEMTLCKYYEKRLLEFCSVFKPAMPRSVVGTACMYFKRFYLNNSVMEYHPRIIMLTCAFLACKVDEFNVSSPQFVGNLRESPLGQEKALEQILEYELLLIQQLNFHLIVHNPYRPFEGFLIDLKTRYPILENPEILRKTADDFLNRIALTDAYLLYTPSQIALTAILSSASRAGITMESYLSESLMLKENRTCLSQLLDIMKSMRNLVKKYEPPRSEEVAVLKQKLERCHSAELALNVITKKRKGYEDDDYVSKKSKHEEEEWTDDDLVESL
T4 sequence (P51948 whole entry partner): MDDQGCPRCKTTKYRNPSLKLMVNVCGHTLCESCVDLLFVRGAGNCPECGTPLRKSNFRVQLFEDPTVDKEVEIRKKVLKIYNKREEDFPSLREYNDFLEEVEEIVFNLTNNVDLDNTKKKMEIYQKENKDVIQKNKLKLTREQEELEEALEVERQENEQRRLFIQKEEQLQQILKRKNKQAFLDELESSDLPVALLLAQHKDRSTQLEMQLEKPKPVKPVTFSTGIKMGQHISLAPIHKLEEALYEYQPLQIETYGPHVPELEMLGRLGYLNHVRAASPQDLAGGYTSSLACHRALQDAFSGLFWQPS
T3 sequence (P50750 whole entry): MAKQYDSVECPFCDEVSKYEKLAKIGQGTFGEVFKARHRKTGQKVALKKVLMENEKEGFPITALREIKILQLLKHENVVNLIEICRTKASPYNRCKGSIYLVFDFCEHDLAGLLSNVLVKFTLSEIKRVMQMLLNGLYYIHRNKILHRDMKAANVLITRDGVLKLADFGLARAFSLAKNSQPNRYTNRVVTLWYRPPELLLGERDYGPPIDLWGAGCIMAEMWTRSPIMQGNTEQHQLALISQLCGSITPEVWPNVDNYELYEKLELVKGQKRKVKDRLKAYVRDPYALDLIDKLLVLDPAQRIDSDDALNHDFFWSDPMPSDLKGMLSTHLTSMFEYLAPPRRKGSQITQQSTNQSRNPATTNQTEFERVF
T3 sequence (O75909 whole entry partner): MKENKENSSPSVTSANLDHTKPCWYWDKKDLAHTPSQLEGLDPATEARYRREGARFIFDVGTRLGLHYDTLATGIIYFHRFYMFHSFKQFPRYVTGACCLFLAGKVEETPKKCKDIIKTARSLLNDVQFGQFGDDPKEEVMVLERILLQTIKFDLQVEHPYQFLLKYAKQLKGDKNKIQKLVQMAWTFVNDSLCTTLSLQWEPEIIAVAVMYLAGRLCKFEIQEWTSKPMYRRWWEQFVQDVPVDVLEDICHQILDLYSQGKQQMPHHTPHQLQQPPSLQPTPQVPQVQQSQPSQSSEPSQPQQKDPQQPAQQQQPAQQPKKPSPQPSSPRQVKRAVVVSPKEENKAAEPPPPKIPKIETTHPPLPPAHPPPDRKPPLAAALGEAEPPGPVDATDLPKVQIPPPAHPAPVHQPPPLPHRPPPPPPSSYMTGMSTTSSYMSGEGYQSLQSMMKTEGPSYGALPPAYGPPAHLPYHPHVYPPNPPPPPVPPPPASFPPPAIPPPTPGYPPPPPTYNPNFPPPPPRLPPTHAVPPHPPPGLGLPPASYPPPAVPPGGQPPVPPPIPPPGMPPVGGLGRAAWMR
T1 sequence (P50750 whole entry): as the sequence (P50750 whole entry) above
T1 sequence (O60563 whole entry partner): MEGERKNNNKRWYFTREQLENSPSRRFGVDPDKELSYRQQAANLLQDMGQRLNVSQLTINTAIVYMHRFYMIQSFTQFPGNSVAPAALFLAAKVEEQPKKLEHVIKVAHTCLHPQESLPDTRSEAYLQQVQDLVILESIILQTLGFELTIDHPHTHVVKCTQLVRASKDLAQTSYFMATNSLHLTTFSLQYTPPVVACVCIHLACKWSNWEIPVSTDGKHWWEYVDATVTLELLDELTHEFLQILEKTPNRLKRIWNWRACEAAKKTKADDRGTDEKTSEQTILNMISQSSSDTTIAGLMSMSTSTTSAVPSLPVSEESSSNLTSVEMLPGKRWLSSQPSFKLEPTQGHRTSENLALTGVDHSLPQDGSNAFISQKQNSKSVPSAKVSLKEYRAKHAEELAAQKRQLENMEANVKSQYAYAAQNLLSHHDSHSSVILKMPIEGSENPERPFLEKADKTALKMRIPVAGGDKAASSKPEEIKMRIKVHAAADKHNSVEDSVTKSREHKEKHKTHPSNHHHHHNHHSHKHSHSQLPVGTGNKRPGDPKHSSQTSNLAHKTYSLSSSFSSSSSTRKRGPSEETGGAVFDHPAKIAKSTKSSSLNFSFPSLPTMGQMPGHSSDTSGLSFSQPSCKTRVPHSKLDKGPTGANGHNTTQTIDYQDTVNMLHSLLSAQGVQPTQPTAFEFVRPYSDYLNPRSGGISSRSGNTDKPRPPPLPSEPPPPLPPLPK

Structure (SMILES)	Kd [1] [nM]	Kd [2] [nM]	Kd [3] [nM]	Kd [4] [µM]
CCOC(=O)N=S(C)(=O)c1cccc(Nc2ncnc(-c3ccccc3OC)n2)c1 (racemic) [Compound G1, rac-S-[3-((4-(2-Methoxyphenyl)-1,3,5-triazin-2-yl)amino)phenyl]-N-ethoxycarbonyl-S-methyl-sulfoximide]	105	> 10000	87.2	> 10
COc1c(F)cc(F)cc1-c1ncnc(Nc2cccc(CS(N)(=O)=O)c2)n1 [Compound B5, 3-[(4-(3,5-Difluoro-2-methoxyphenyl)-1,3,5-triazin-2-yl)amino]benzenemethanesulfonamide]	835		286	> 10
COc1cc(C(F)(F)F)ccc1-c1ncnc(Nc2cccc(CS(N)(=O)=O)c2)n1 [Compound B8, 3-[(4-(2-Methoxy-4-trifluoromethyl-phenyl)-1,3,5-triazin-2-yl)amino]benzenemethanesulfonamide]	1230		709	> 10
COc1ccc(C(F)(F)F)cc1-c1ncnc(Nc2cccc(CS(N)(=O)=O)c2)n1 [Compound B9, 3-[(4-(2-Methoxy-5-trifluoromethyl-phenyl)-1,3,5-triazin-2-yl)amino]benzenemethanesulfonamide]	398		1590	> 10
COc1ccc(CO)cc1-c1ncnc(Nc2cccc(CS(N)(=O)=O)c2)n1 [Compound B10, 3-[(4-(5-Hydroxymethyl-2-methoxyphenyl)-1,3,5-triazin-2-yl)amino]benzenemethanesulfonamide]	309		110	> 10
CC(C)(C)OC(=O)NCCCCOc1ccccc1-c1ncnc(Nc2cccc(CS(N)(=O)=O)c2)n1 [Compound B17, 3-[(4-(2-(4-(tert-Butoxycarbonylamino)butoxy)phenyl)-1,3,5-triazin-2-yl)amino]benzenemethanesulfonamide]	15	2850	6.4	12.8
NS(=O)(=O)Cc1cccc(Nc2ncnc(-c3ccccc3CNC3CC3)n2)c1 [Compound B22, 3-[(4-(2-(Cyclopropylamino-methyl)phenyl)-1,3,5-triazin-2-yl)amino]benzenemethanesulfonamide]	425		373	
COCc1ccccc1-c1ncnc(Nc2cccc(CS(N)(=O)=O)c2)n1 [Compound B24, 3-[(4-(2-(Methoxymethyl)phenyl)-1,3,5-triazin-2-yl)amino]benzenemethanesulfonamide]	907		1110	> 10
COc1ccccc1-c1ncnc(Nc2ccc3c(c2)N(S(N)(=O)=O)CC3)n1 [Compound F1, 6-[(4-(2-Methoxyphenyl)-1,3,5-triazin-2-yl)amino]-2,3-dihydro-1H-indole-1-sulfonamide]	131	1100	39.7	13.4
NCCCCOc1ccccc1-c1ncnc(Nc2cccc(CS(N)(=O)=O)c2)n1 [Compound I1, 3-[(4-(2-(4-Aminobutoxy)phenyl)-1,3,5-triazin-2-yl)amino]benzenemethanesulfonamide]	101		52	> 30
COc1ccccc1-c1ncnc(Nc2cccc(NC(C)=O)c2)n1 [Compound M1, N-[3-((4-(2-Methoxyphenyl)-1,3,5-triazin-2-yl)amino)phenyl]acetamide]	146	1450	71.2	> 30
CNCc1ccc(OC)c(-c2ncnc(Nc3cccc(CS(N)(=O)=O)c3)n2)c1 [Compound O1, 3-[(4-(2-Methoxy-5-(methylamino-methyl)phenyl)-1,3,5-triazin-2-yl)amino]benzenemethanesulfonamide]	5410		5980	> 30
COc1cc(F)ccc1-c1ncnc(Nc2cccc(CS(=O)(=O)NCCCCNC(=O)OC(C)(C)C)c2)n1 [Compound Q1, tert-Butyl [4-((3-((4-(4-Fluoro-2-methoxyphenyl)-1,3,5-triazin-2-yl)amino)phenyl)methylsulfonamido)butyl]carbamate]	12.9	2090	5	> 10
COc1cc(F)ccc1-c1ncnc(Nc2cccc(CS(=O)(=O)NCCCCN)c2)n1 [Compound R1, N-(4-Aminobutyl)-1-[3-((4-(4-fluoro-2-methoxyphenyl)-1,3,5-triazin-2-yl)amino)phenyl]methanesulfonamide]	5	2920	5	> 10
